Laboratory results taken from patent US6861542B1, “Dimer amidopropyl dimethyl quaternary compounds” (SurfaTech Corporation, priority 2004, dated 2005).

Assays:
[1] = Anionic compatibility test (titration of 10% sodium lauryl sulfate with 10% solids quat solution); assay type: physicochemical; conditions: 10% solids solution added to 100 ml of 10% sodium lauryl sulfate; for number of ml of solution A at the first point haze or precipitate was noted (end point): test stopped at 100 ml (fully compatible)
Description: The compounds evaluated were diluted to 10% solids with DI water before evaluation.
A solution of 10% b weight sodium lauryl sulfate was prepared. The sodium lauryl sulfate was obtained from Colonial Chemical in South Pittsburgh Tennessee.
Anionic Compatibility Test
100 ml of solution B was added to a 400 ml beaker. Solution A was slowly added until either a precipitate or haziness was noted. The number of ml of solution was recorded at the first point the haze of precipitate was noted. That point was noted as the end point. The higher the volume used to the end point the better the compatibility. The test is stopped at 100 ml at which point the product is considered fully compatible.

hair = assay: Half head conditioning study in commercial baby shampoo; assay type: in vivo; set-up: key: 1: no conditioning; 2: minimal conditioning; 3: measurable conditioning; 4: good conditioning; 5: excellent conditioning; conditions: 0.5% active by weight in commercial baby shampoo, 10 people, average rounded to nearest whole number
Description: The baby shampoo compounds were evaluated on 10 people with half head studies. The values reported were the average rounded to the nearest whole number. […] The scale used to evaluate was: [table]

Compound | anionic compatibility rating [1] | number of ml of solution A at the first point haze or precipitate was noted (end point) [1] [mL] | Conditioning Value (hair)
CCCCCCCCCCCCCCCCCC[N+](C)(C)Cc1ccccc1.[Cl-] [Stearyl dimethyl denzalkonium chloride, reference compound] | Very Incompatible | 1.0 | 
CCCCCCCCCCCCCCCCCC(=O)NCCCN(C)C.Cl [Stearylamidopropyl dimethyl ammonium chloride, reference compound] | mildly compatible | 20.0 | 1
Cetyl trimethyl benzyl ammonium chloride [reference compound] | Very Incompatible | 0.5 | 
Dimer benzyl quat [Example 5] | Very | 88.2 | 5
Dimer glyceryl quat [Example 3] | Fully | 100.0 | 4
Dimer tri-methyl quat [Example 7] | Compatible | 58.9 | 4
Hydrogenated dimer benzyl quat [Example 6] |  |  | 5
Hydrogenated dimer glyceryl quat [Example 4] | Fully | 100.0 | 4
Hydrogenated dimer tri-methyl [Example 8] | Compatible | 59.6 | 4
